From ChEMBL document CHEMBL2401630, “A thienopyrimidine derivative induces growth inhibition and apoptosis in human cancer cell lines via inhibiting Aurora B kinase activity” (Eur J Med Chem, 2013)
Calls of active or inactive are those of the source. The calls are words filed in the database; no cut-off is given here.

What was measured:
Aurora kinase B [1] = target: T1, Aurora kinase B (Homo sapiens, UniProt Q96GD4); assay: Inhibition of Aurora B kinase (unknown origin) at 10 uM by Z'-LYTE kinase assay
T1 sequence (Q96GD4 whole entry): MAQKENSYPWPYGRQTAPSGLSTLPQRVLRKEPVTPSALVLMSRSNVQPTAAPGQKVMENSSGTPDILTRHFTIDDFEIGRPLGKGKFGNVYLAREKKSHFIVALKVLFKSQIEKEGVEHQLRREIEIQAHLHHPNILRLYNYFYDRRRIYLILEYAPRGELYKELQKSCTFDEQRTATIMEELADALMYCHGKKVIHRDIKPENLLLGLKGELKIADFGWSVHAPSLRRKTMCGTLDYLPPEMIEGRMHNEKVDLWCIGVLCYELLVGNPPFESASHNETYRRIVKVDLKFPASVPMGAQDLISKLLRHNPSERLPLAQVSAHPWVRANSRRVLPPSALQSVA

SK-OV-3 = assay: Cytotoxicity against human SKOV3 cells after 72 hrs by CCK-8 assay; format: functional, cell-based; settings: SK-OV-3, 72 h
SW-620 [2] = assay: Induction of apoptosis in human SW620 cells assessed as late apoptotic cells at 5 uM after 48 hrs by Annexin-V staining-based flow cytometry (reference value: 4.52 %); format: functional
A549 = assay: Cytotoxicity against human A549 cells after 72 hrs by CCK-8 assay; format: functional, cell-based; settings: A549, 72 h
SW-620 [3] = assay: Induction of apoptosis in human SW620 cells assessed as late apoptotic cells at 20 uM after 48 hrs by Annexin-V staining-based flow cytometry (reference value: 4.52 %); format: functional
[4] = target: 5'-AMP-activated protein kinase catalytic subunit alpha-2 (Homo sapiens) (UniProt P54646); assay: Inhibition of AMPK (unknown origin) at 10 uM by Z'-LYTE kinase assay
Aurora kinase B [5] = target: T1, Aurora kinase B; assay: Inhibition of Aurora B kinase in human HeLa cells assessed as inhibition of Histone H3 phosphorylation after 48 hrs by immuno-fluorescence analysis relative to control; format: cell-based
HeLa = assay: Cytotoxicity against human HeLa cells after 72 hrs by CCK-8 assay; format: functional, cell-based
Aurora kinase B [6] = target: T1, Aurora kinase B; assay: Inhibition of Aurora B kinase in human SW620 cells assessed as inhibition of Histone H3 phosphorylation after 48 hrs by Western blotting analysis; format: cell-based; settings: SW-620
SW-620 [7] = assay: Induction of apoptosis in human SW620 cells assessed as late apoptotic cells after 48 hrs by Annexin-V staining-based flow cytometry; format: functional, cell-based
SW-620 [8] = assay: Growth inhibition in human SW620 cells at 5 to 10 uM incubated for 96 hrs followed by compound washout measured after 48 hrs by CCK-8 assay; format: functional, cell-based
[9] = Cytotoxicity against human Hep3B cells after 72 hrs by CCK-8 assay; format: functional, cell-based, Hep 3B2
SW-620 [10] = assay: Growth inhibition in human SW620 cells assessed as cell death at 10 uM incubated for 96 hrs measured after 8 days by CCK-8 assay; format: functional, cell-based
Aurora kinase B [11] = target: T1, Aurora kinase B; assay: Inhibition of Aurora B kinase phosphorylation in human HeLa cells after 48 hrs by Western blotting analysis; format: cell-based
[12] = target: Epidermal growth factor receptor (Homo sapiens) (UniProt P00533); assay: Inhibition of EGFR (unknown origin) at 10 uM by Z'-LYTE kinase assay
Chain of Epidermal growth factor receptor (Homo sapiens) (P00533 whole entry): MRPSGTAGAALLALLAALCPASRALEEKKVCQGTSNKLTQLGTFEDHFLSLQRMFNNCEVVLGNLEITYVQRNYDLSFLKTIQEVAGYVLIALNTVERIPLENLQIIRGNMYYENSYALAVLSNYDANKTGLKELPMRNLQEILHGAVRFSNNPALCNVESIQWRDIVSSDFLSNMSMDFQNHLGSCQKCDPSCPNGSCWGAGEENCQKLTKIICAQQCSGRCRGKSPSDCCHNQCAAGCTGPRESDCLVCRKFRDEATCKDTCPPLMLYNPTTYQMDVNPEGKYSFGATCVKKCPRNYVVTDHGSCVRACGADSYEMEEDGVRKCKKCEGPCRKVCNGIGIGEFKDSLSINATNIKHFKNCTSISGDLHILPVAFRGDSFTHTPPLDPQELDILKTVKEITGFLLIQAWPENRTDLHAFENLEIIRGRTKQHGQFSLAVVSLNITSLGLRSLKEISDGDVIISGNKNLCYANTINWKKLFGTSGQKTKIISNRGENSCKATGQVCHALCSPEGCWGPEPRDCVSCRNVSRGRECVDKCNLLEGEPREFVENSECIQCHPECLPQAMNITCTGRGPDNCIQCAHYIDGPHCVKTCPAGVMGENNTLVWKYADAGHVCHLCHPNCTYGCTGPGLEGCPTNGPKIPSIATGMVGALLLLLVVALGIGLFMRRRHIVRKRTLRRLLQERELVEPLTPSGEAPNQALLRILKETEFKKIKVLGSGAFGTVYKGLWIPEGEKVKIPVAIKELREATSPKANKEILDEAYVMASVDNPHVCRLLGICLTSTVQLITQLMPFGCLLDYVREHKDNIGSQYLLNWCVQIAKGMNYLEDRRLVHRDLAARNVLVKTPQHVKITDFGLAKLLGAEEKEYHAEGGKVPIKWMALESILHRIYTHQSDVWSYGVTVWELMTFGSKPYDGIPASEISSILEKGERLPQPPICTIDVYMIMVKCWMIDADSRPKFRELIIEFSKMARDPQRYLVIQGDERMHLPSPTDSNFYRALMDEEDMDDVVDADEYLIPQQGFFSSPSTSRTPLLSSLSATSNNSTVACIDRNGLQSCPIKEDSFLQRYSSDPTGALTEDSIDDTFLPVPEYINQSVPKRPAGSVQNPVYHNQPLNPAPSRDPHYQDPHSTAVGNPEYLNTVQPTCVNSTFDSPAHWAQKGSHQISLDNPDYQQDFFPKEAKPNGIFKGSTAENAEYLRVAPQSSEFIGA

SW-620 [13] = assay: Cytotoxicity against human SW620 cells after 72 hrs by CCK-8 assay; format: functional, cell-based; settings: SW-620, 72 h
Aurora kinase B [14] = target: T1, Aurora kinase B; assay: Inhibition of Aurora B kinase phosphorylation in human HepG2 cells after 48 hrs by Western blotting analysis; format: cell-based
CNE = assay: Cytotoxicity against human CNE cells after 72 hrs by CCK-8 assay; format: functional, cell-based
[15] = target: RAF proto-oncogene serine/threonine-protein kinase (Homo sapiens) (UniProt P04049); assay: Inhibition of c-Raf (unknown origin) at 10 uM by Z'-LYTE kinase assay
[16] = target: RAC-alpha serine/threonine-protein kinase (Homo sapiens) (UniProt P31749); assay: Inhibition of AKT1 (unknown origin) at 10 uM by Z'-LYTE kinase assay
A-375 = assay: Cytotoxicity against human A375 cells after 72 hrs by CCK-8 assay; format: functional, cell-based; settings: A-375, 72 h
HCT-116 = assay: Cytotoxicity against human HCT116 cells after 72 hrs by CCK-8 assay; format: functional, cell-based; settings: HCT-116, 72 h
SW-620 [17] = assay: Induction of apoptosis in human SW620 cells assessed as late apoptotic cells at 10 uM after 48 hrs by Annexin-V staining-based flow cytometry (reference value: 4.52 %); format: functional
[18] = target: Glycogen synthase kinase-3 beta (Homo sapiens) (UniProt P49841); assay: Inhibition of GSK3 beta (unknown origin) at 10 uM by Z'-LYTE kinase assay
Chain of Glycogen synthase kinase-3 beta (Homo sapiens) (P49841 whole entry, looked up): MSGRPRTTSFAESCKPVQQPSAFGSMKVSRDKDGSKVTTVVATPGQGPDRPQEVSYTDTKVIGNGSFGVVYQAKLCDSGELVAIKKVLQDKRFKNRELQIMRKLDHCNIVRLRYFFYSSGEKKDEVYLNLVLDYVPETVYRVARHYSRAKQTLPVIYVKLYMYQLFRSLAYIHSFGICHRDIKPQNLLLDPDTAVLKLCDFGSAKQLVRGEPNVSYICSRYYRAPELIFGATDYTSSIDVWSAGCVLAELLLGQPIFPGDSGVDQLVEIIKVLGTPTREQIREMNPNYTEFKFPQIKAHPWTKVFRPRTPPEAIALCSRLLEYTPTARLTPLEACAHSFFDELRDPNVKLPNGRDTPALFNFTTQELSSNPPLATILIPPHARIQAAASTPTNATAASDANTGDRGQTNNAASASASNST

[19] = target: Aurora kinase A (Homo sapiens) (UniProt O14965); assay: Inhibition of Aurora A kinase (unknown origin) at 10 uM by Z'-LYTE kinase assay
PC-3 = assay: Cytotoxicity against human PC3 cells after 72 hrs by CCK-8 assay; format: functional, cell-based; settings: PC-3, 72 h
Aurora kinase B [20] = target: T1, Aurora kinase B; assay: Inhibition of Aurora B kinase in human HepG2 cells assessed as inhibition of Histone H3 phosphorylation after 48 hrs by Western blotting analysis; format: cell-based
[21] = target: Vascular endothelial growth factor receptor 2 (Homo sapiens) (UniProt P35968); assay: Inhibition of VEGFR2 (unknown origin) at 10 uM by Z'-LYTE kinase assay
Chain of Vascular endothelial growth factor receptor 2 (Homo sapiens) (P35968 whole entry): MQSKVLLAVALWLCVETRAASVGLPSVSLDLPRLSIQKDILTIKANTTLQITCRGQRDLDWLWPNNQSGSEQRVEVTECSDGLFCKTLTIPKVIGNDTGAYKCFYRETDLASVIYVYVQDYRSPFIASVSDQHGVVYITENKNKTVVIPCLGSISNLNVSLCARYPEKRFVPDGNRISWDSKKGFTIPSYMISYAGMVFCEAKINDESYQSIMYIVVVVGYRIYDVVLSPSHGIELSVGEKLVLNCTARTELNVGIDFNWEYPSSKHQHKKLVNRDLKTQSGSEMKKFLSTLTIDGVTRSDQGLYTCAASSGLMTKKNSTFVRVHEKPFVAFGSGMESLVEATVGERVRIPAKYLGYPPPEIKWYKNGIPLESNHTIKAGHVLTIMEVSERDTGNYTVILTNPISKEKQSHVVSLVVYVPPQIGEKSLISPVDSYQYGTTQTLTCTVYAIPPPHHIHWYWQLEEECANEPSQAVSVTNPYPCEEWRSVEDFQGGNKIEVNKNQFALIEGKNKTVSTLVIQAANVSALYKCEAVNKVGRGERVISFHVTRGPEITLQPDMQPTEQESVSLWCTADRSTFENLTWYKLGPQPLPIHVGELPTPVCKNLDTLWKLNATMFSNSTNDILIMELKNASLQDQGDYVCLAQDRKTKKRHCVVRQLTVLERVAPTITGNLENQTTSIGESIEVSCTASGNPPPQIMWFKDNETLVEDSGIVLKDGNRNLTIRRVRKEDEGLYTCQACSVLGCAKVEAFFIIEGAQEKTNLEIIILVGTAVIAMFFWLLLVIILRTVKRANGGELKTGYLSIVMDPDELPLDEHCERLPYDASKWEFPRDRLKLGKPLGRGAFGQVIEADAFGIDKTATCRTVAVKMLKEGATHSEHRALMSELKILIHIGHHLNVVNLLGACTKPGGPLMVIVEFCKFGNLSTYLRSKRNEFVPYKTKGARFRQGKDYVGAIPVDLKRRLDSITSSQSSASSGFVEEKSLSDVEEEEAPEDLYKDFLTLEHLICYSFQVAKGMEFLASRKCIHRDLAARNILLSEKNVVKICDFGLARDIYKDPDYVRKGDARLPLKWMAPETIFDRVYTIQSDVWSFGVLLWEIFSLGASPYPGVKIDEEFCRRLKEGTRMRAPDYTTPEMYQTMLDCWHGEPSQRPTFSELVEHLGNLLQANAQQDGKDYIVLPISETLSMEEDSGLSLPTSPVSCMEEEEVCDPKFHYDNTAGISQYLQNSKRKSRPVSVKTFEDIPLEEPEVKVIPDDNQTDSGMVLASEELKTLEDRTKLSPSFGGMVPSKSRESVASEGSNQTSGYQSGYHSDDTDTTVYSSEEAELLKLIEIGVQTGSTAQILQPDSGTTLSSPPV

Aurora kinase B [22] = target: T1, Aurora kinase B; assay: Inhibition of Aurora B kinase phosphorylation in human SW620 cells after 48 hrs by Western blotting analysis; format: cell-based; settings: SW-620
[23] = target: High affinity nerve growth factor receptor (Homo sapiens) (UniProt P04629); assay: Inhibition of TRKA (unknown origin) at 10 uM by Z'-LYTE kinase assay
HGC-27 = assay: Cytotoxicity against human HGC27 cells after 72 hrs by CCK-8 assay; format: functional, cell-based; settings: HGC-27, 72 h
Aurora kinase B [24] = target: T1, Aurora kinase B; assay: Inhibition of recombinant Aurora B kinase (unknown origin) expressed in Escherichia coli
[25] = target: Tyrosine-protein kinase receptor UFO (Homo sapiens) (UniProt P30530); assay: Inhibition of AXL (unknown origin) at 10 uM by Z'-LYTE kinase assay
Chain of Tyrosine-protein kinase receptor UFO (Homo sapiens) (P30530 whole entry): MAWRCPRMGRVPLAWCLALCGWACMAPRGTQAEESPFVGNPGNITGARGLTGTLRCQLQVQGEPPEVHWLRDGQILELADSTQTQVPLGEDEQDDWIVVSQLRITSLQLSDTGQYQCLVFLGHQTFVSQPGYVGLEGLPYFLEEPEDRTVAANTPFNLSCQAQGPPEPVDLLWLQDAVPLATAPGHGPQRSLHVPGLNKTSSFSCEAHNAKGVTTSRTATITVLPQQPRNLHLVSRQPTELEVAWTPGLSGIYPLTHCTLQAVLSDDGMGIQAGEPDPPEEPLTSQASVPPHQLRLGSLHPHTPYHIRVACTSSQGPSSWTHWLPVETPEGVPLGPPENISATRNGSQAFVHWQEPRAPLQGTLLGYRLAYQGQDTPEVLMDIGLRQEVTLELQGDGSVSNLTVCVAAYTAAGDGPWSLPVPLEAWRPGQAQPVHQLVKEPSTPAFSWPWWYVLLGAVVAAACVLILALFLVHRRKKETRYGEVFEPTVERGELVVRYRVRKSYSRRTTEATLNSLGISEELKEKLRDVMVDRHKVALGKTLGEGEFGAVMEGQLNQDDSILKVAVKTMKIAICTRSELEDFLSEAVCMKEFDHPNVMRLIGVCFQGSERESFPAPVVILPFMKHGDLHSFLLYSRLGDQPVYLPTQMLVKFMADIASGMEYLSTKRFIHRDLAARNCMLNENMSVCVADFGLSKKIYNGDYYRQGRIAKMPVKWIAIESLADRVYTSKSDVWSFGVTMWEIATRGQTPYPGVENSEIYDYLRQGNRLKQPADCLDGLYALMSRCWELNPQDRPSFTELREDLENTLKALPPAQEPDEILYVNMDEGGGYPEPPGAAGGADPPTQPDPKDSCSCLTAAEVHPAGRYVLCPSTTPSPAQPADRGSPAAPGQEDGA

MCF7 = assay: Cytotoxicity against human MCF7 cells after 72 hrs by CCK-8 assay; format: functional, cell-based; settings: MCF7, 72 h
[26] = target: Serine/threonine-protein kinase PLK1 (Homo sapiens) (UniProt P53350); assay: Inhibition of PLK1 (unknown origin) at 10 uM by Z'-LYTE kinase assay
Chain of Serine/threonine-protein kinase PLK1 (Homo sapiens) (P53350 whole entry): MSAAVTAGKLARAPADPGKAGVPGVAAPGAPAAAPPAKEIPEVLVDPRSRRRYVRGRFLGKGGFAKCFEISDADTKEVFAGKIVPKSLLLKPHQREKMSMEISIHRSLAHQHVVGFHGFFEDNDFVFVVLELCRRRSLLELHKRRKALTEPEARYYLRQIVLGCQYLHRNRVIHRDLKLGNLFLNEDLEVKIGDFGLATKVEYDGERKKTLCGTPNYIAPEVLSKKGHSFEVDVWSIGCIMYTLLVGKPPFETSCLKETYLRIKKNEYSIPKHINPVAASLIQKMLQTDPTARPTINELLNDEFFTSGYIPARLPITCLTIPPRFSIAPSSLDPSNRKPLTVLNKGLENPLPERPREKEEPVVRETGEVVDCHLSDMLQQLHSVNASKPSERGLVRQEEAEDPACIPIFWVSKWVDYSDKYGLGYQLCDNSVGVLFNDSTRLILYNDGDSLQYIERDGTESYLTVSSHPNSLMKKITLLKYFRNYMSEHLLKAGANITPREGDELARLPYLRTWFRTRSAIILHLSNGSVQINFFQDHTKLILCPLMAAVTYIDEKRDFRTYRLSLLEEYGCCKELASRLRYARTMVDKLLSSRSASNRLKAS

[27] = target: Platelet-derived growth factor receptor beta (Homo sapiens) (UniProt P09619); assay: Inhibition of PDGFR beta (unknown origin) at 10 uM by Z'-LYTE kinase assay
Homo sapiens = organism: Homo sapiens; assay: Inhibition of PKA (unknown origin) at 10 uM by Z'-LYTE kinase assay
Aurora kinase B [28] = target: T1, Aurora kinase B; assay: Competitive inhibition of recombinant Aurora B kinase (unknown origin) expressed in Escherichia coli by Z'-LYTE kinase assay in presence of ATP
HepG2 = assay: Cytotoxicity against human HepG2 cells after 72 hrs by CCK-8 assay; format: functional, cell-based; settings: HepG2, 72 h
[29] = target: CDK2/Cyclin A2 (Homo sapiens) (UniProt P24941+P20248); assay: Inhibition of CDK2/CycA (unknown origin) at 10 uM by Z'-LYTE kinase assay; format: protein-complex assay
Aurora kinase B [30] = target: T1, Aurora kinase B; assay: Inhibition of Aurora B kinase in human HeLa cells assessed as inhibition of Histone H3 phosphorylation after 48 hrs by Western blotting analysis; format: cell-based
MDA-MB-231 = assay: Cytotoxicity against human MDA-MB-231 cells after 72 hrs by CCK-8 assay; format: functional, cell-based; settings: MDA-MB-231, 72 h
SK-HEP1 = assay: Cytotoxicity against human SKHEP1 cells after 72 hrs by CCK-8 assay; format: functional, cell-based; settings: SK-HEP1, 72 h
[31] = Cytotoxicity against human PANC cells after 72 hrs by CCK-8 assay; format: functional, cell-based
SW-620 [32] = assay: Cytotoxicity against human SW620 cells at 10 uM incubated for 96 hrs measured after 10 days by colony formation assay relative to control; format: functional
[33] = target: Proto-oncogene tyrosine-protein kinase receptor Ret (Homo sapiens) (UniProt P07949); assay: Inhibition of RET (unknown origin) at 10 uM by Z'-LYTE kinase assay
SW-620 [34] = assay: Growth inhibition in human SW620 cells at 5 to 10 uM after 96 hrs by CCK-8 assay relative to control; format: functional, cell-based
SW-620 [35] = assay: Cytotoxicity against human SW620 cells at 20 uM incubated for 96 hrs measured after 10 days by colony formation assay relative to control; format: functional

inhibition (Aurora kinase B [1]): 74.4% | inhibition [4]: 3.37% | inhibition (Aurora kinase B [5]): Active | inhibition (Aurora kinase B [6]): Active | inhibition (Aurora kinase B [11]): Dose-dependent effect | inhibition [12]: 1.69% | inhibition (Aurora kinase B [14]): Dose-dependent effect | inhibition [15]: 1.42% | inhibition [16]: 5.32% | inhibition [18]: 13% | inhibition [19]: 65.3% | inhibition (Aurora kinase B [20]): Active | inhibition [21]: 3.02% | inhibition (Aurora kinase B [22]): Dose-dependent effect | inhibition [23]: 4.18% | IC50 (Aurora kinase B [24]): 0.141 µM | inhibition [25]: 2.58% | inhibition [26]: 6.5% | inhibition [27]: 9.63% | inhibition (Homo sapiens): 1.77% | inhibition (Aurora kinase B [28]): Active | inhibition [29]: 27.7% | inhibition (Aurora kinase B [30]): Active | inhibition [33]: 1.86%
Structure (SMILES): c1ccc(-c2csc3ncnc(N4CCc5ccccc5C4)c23)cc1
IC50 (SK-OV-3): 20.6 µM | Activity (SW-620 [2]): 9.34% | IC50 (A549): > 100 µM | Activity (SW-620 [3]): 35.39% | IC50 (HeLa): 20.8 µM | Activity (SW-620 [7]): Dose-dependent effect | growth inhibition (GI) (SW-620 [8]): inactive | IC50 [9]: > 100 µM | growth inhibition (GI) (SW-620 [10]): Active | IC50 (SW-620 [13]): 6.25 µM | IC50 (CNE): > 100 µM | IC50 (A-375): 15.2 µM | IC50 (HCT-116): > 100 µM | Activity (SW-620 [17]): 24.09% | IC50 (PC-3): 13.2 µM | IC50 (HGC-27): 17.4 µM | IC50 (MCF7): 27 µM | IC50 (HepG2): 23.4 µM | IC50 (MDA-MB-231): > 100 µM | IC50 (SK-HEP1): > 100 µM | IC50 [31]: 42.3 µM | Activity (SW-620 [32]): 33.6% | growth inhibition (GI) (SW-620 [34]): Active | Activity (SW-620 [35]): 13.2%
